Measured values: patent US8852629B2, “Drug delivery system for hydrophobic drugs” (Valeant Pharmaceuticals International, Inc., priority 2001, dated 2014)

How the values were obtained:
[1] = lability in an aqueous environment; format: physicochemical; settings: must be lyophilized for storage
Excerpt: It has been a challenge to find suitable pharmaceutical formulations for hydrophobic polypyrrolic macrocyle based photosensitizers that can be filter sterilized and freeze dried, and can also be rapidly reconstituted in an aqueous medium prior to administration, while retaining a small particle size after rehydration. Photosensitive compounds such as verteporfin (BPD-MA) and QLT 0074 (EA6) must be lyophilized for storage, because they are labile in an aqueous environment.

[2] = storage stability (potency) of cryodesiccated MA composition; format: physicochemical; settings: room temperature
Excerpt: Once formulated, the MA of the invention may be freeze-dried for long-term storage if desired. […] If the composition is freeze-dried, it may be packed in vials for subsequent reconstitution with a suitable aqueous solution, such as sterile water or sterile water containing a saccharide and/or other suitable excipients, just prior to use. For example, reconstitution may be by simply adding water for injection just prior to administration.

benzoporphyrin derivative monoacid ring A [BPD-MA]
stability in an aqueous environment [1]: labile
period over which potency was maintained [2]: at least nine
